Toxic doses and inconclusive results are not listed. How the source made its calls: active means survival T/C of 150% or more; inactive means T/C below 125% in these data.
Tested on: CD2F1 mice, L1210 leukemia ip, survival T/C
Assay: NCI In Vivo Anticancer Drug Screen. Data for tumor model L1210 Leukemia (intraperitoneal) in CD2F1 (CDF1) mice
Settings: higher = longer survival
In short: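 Activity against a transplanted murine tumor was judged by comparing the compound group with a vehicle group. The outcome in the treated animals was divided by that in the controls.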

[1] = endpoint: mean survival time, dose: 100.0 mg/kg/injection, schedule: Q01DX001 (ip), vehicle: saline
[2] = endpoint: mean survival time, dose: 100.0 mg/kg/injection, schedule: Q01DX009 (ip), vehicle: saline with Tween-80
[3] = endpoint: mean survival time, dose: 100.0 mg/kg/injection, schedule: Q04DX003 (ip), vehicle: saline
[4] = endpoint: mean survival time, dose: 200.0 mg/kg/injection, schedule: Q01DX009 (ip), vehicle: saline with Tween-80
[5] = endpoint: mean survival time, dose: 200.0 mg/kg/injection, schedule: Q04DX003 (ip), vehicle: saline
[6] = endpoint: mean survival time, dose: 400.0 mg/kg/injection, schedule: Q01DX009 (ip), vehicle: saline with Tween-80
[7] = endpoint: mean survival time, dose: 400.0 mg/kg/injection, schedule: Q04DX003 (ip), vehicle: saline
[8] = endpoint: mean survival time, dose: 100.0 mg/kg/injection, schedule: Q01DX001 (ip), vehicle: saline with Tween-80
[9] = endpoint: mean survival time, dose: 200.0 mg/kg/injection, schedule: Q01DX001 (ip), vehicle: saline with Tween-80
[10] = endpoint: mean survival time, dose: 400.0 mg/kg/injection, schedule: Q01DX001 (ip), vehicle: saline with Tween-80
[11] = endpoint: mean survival time, dose: 100.0 mg/kg/injection, schedule: Q04DX003 (ip), vehicle: saline with Tween-80
[12] = endpoint: mean survival time, dose: 200.0 mg/kg/injection, schedule: Q04DX003 (ip), vehicle: saline with Tween-80
[13] = endpoint: mean survival time, dose: 400.0 mg/kg/injection, schedule: Q04DX003 (ip), vehicle: saline with Tween-80
[14] = endpoint: mean survival time, dose: 50.0 mg/kg/injection, schedule: Q04DX003 (ip), vehicle: saline

Measured: T/C

CC(=O)O.[Ag]
inactive: endpoint: mean survival time, dose: 5.0 mg/kg/injection, schedule: Q01DX001 (ip), vehicle: saline 93 % of control | endpoint: mean survival time, dose: 10.0 mg/kg/injection, schedule: Q01DX001 (ip), vehicle: saline 96 % of control | endpoint: mean survival time, dose: 20.0 mg/kg/injection, schedule: Q01DX001 (ip), vehicle: saline 97 % of control | endpoint: mean survival time, dose: 40.0 mg/kg/injection, schedule: Q01DX001 (ip), vehicle: saline 100 % of control | endpoint: mean survival time, dose: 80.0 mg/kg/injection, schedule: Q01DX001 (ip), vehicle: saline 100 % of control | [1] 91 % of control

O=S(=O)(O)c1ccc(Nc2ccccc2)cc1
inactive: [2] 105 % of control | [3] 104 % of control | [4] 97 % of control | [5] 106 % of control | [6] 103 % of control | [7] 100 % of control

CCCC(O)C(CC)[N+](=O)[O-] (stereo unspecified)
inactive: [8] 102 % of control | [9] 98 % of control | [10] 94 % of control

O=C1C2C3CCC(O3)C2C(=O)N1CC#CCN1C(=O)C2C3CCC(O3)C2C1=O (stereo unspecified)
inactive: endpoint: mean survival time, dose: 100.0 mg/kg/injection, schedule: Q04DX002 (ip), vehicle: saline with Tween-80 98 % of control | endpoint: mean survival time, dose: 200.0 mg/kg/injection, schedule: Q04DX002 (ip), vehicle: saline with Tween-80 98 % of control | endpoint: mean survival time, dose: 400.0 mg/kg/injection, schedule: Q04DX002 (ip), vehicle: saline with Tween-80 90 % of control

Cc1ccc(C2=C(Br)C(=O)C(c3ccc(C)cc3C)=C(Br)C2=O)c(C)c1
inactive: [8] 92 % of control | [9] 92 % of control | [10] 101 % of control

C[N+](C)(C)CCCNC(=O)Nc1ccc(Cl)cc1
inactive: endpoint: mean survival time, dose: 6.25 mg/kg/injection, schedule: Q04DX002 (ip), vehicle: saline 106 % of control | endpoint: mean survival time, dose: 25.0 mg/kg/injection, schedule: Q04DX002 (ip), vehicle: saline 100 % of control

Cc1cc(C)c(S(=O)(=O)c2ccc(F)cc2)c(C)c1
inactive: [1] 100 % of control | [3] 101 % of control | endpoint: mean survival time, dose: 200.0 mg/kg/injection, schedule: Q01DX001 (ip), vehicle: saline 102 % of control | [5] 102 % of control | endpoint: mean survival time, dose: 400.0 mg/kg/injection, schedule: Q01DX001 (ip), vehicle: saline 100 % of control | [7] 96 % of control

Oc1c(Cl)cc(Cl)cc1/C=N/NC(=S)Nc1cc(C(F)(F)F)cc(C(F)(F)F)c1
inactive: endpoint: mean survival time, dose: 6.25 mg/kg/injection, schedule: Q01DX009 (ip), vehicle: olive oil, sesame oil, peanut oil 102 % of control | endpoint: mean survival time, dose: 12.5 mg/kg/injection, schedule: Q01DX009 (ip), vehicle: olive oil, sesame oil, peanut oil 100 % of control | endpoint: mean survival time, dose: 25.0 mg/kg/injection, schedule: Q01DX009 (ip), vehicle: olive oil, sesame oil, peanut oil 100 % of control | endpoint: mean survival time, dose: 50.0 mg/kg/injection, schedule: Q01DX009 (ip), vehicle: olive oil, sesame oil, peanut oil 102 % of control | endpoint: mean survival time, dose: 100.0 mg/kg/injection, schedule: Q01DX009 (ip), vehicle: olive oil, sesame oil, peanut oil 102 % of control | endpoint: mean survival time, dose: 200.0 mg/kg/injection, schedule: Q01DX009 (ip), vehicle: olive oil, sesame oil, peanut oil 94 % of control

CCCCCCCCCCCCC(=O)O.[Pb]
inactive: endpoint: mean survival time, dose: 75.0 mg/kg/injection, schedule: Q01DX001 (ip), vehicle: other 107 % of control | endpoint: mean survival time, dose: 150.0 mg/kg/injection, schedule: Q01DX001 (ip), vehicle: other 104 % of control | endpoint: mean survival time, dose: 300.0 mg/kg/injection, schedule: Q01DX001 (ip), vehicle: other 97 % of control

C(=C\CN(Cc1ccccc1)Cc1ccccc1)/CN(Cc1ccccc1)Cc1ccccc1
inactive: endpoint: mean survival time, dose: 100.0 mg/kg/injection, schedule: Q01DX009 (ip), vehicle: Klucel (hydroxypropylcellulose) (HPC) 95 % of control | endpoint: mean survival time, dose: 200.0 mg/kg/injection, schedule: Q01DX009 (ip), vehicle: Klucel (hydroxypropylcellulose) (HPC) 97 % of control

O=C(COc1cccc(Cl)c1)NCc1ccccc1
inactive: [11] 99 % of control | [12] 96 % of control | [13] 99 % of control

O=[N+]([O-])c1cc(P(=O)(O)O)c(Cl)cc1Cl
inactive: [14] 101 % of control | [3] 90 % of control | [5] 93 % of control

CC(C)NC(=S)S
inactive: endpoint: mean survival time, dose: 25.0 mg/kg/injection, schedule: Q01DX009 (ip), vehicle: saline 100 % of control | endpoint: mean survival time, dose: 25.0 mg/kg/injection, schedule: Q04DX003 (ip), vehicle: saline 100 % of control | endpoint: mean survival time, dose: 50.0 mg/kg/injection, schedule: Q01DX009 (ip), vehicle: saline 94 % of control | [14] 105 % of control | endpoint: mean survival time, dose: 100.0 mg/kg/injection, schedule: Q01DX009 (ip), vehicle: saline 109 % of control | [3] 103 % of control

NC(=O)NC1CCCCCCC1
inactive: [2] 102 % of control | [4] 100 % of control | [6] 110 % of control

COc1cc2ccc3c(c2cc1OC)C(=O)CNC3C (stereo unspecified)
inactive: endpoint: mean survival time, dose: 3.13 mg/kg/injection, schedule: Q01DX009 (ip), vehicle: saline 105 % of control | endpoint: mean survival time, dose: 6.25 mg/kg/injection, schedule: Q01DX009 (ip), vehicle: saline 98 % of control | endpoint: mean survival time, dose: 12.5 mg/kg/injection, schedule: Q01DX009 (ip), vehicle: saline 104 % of control

O=[N+]([O-])/C=C\c1ccccc1
inactive: [11] 96 % of control | [12] 90 % of control | [13] 86 % of control

CSc1nc(NC2OCC(O)C(O)C2O)cc(=O)[nH]1 (stereo unspecified)
inactive: endpoint: median survival time, dose: 12.5 mg/kg/injection, schedule: Q01DX005 (ip), vehicle: saline 102 % of control | endpoint: median survival time, dose: 25.0 mg/kg/injection, schedule: Q01DX005 (ip), vehicle: saline 98 % of control | endpoint: median survival time, dose: 50.0 mg/kg/injection, schedule: Q01DX005 (ip), vehicle: saline 100 % of control | endpoint: median survival time, dose: 100.0 mg/kg/injection, schedule: Q01DX005 (ip), vehicle: saline 98 % of control | endpoint: median survival time, dose: 200.0 mg/kg/injection, schedule: Q01DX005 (ip), vehicle: saline 100 % of control

CC(C)NC(=O)C1CC2c3cccc4[nH]cc(c34)CC2N(C)C1 (stereo unspecified)
inactive: endpoint: mean survival time, dose: 25.0 mg/kg/injection, schedule: Q01DX009 (ip), vehicle: saline with Tween-80 101 % of control | endpoint: mean survival time, dose: 50.0 mg/kg/injection, schedule: Q01DX009 (ip), vehicle: saline with Tween-80 98 % of control | endpoint: mean survival time, dose: 50.0 mg/kg/injection, schedule: Q04DX003 (ip), vehicle: saline with Tween-80 96 % of control | [2] 102 % of control | [11] 105 % of control

From PubChem BioAssay AID256 (DTP/NCI, 2004)
